Laboratory results taken from US20110275559A1, “Long-Acting Y2 and/or Y4 Receptor Agonists” (Novo Nordisk A/S, priority 2008, published 2011).
Where two headings read alike, the source gives them in different places. *1 amine or outer side, *2 acyl side, *3 side chain or, on linkers, in order; H or OH if unused. Where a SMILES comes first, the peptide text is derived from it. Side-chain parts run from the residue outwards. The star is where a group is joined. C20 diacid = O=C(O)CCCCCCCCCCCCCCCCCCC(=O)*; γGlu = O=C(O)[C@H](CCC(=O)[*:2])N[*:1]; Trx = NC[C@H]1CC[C@H](C(=O)O)CC1; AEEA = NCCOCCOCC(=O)O

What was measured:
Y2 receptor = molecular target: T1, Y2 receptor (Homo sapiens, UniProt P49146); assay: Y2 receptor ACTOne based FLIPR assay (cAMP biosensor); format: cell-based
T1 construct: host or cells: ACTOne HEK-293 cells
T1 sequence (P49146 1-381): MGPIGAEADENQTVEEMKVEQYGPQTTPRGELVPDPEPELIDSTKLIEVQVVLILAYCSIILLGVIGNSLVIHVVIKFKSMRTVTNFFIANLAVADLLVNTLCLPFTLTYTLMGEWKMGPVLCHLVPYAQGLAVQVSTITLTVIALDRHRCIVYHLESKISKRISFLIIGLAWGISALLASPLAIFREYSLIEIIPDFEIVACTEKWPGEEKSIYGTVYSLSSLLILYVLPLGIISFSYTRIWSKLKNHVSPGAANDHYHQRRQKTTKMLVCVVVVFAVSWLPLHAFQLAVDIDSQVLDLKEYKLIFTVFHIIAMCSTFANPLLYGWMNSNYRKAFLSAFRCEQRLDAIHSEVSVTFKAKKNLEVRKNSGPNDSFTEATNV

Y4 receptor = molecular target: T2, Y4 receptor (Homo sapiens, UniProt P50391); assay: Y4 receptor ACTOne based FLIPR assay (cAMP biosensor); format: cell-based
T2 construct: host or cells: ACTOne HEK-293 cells
Text: ACTOne™ is an easily scaleable cAMP biosensor HTS platform for measurement of Gs and Gi coupled 7™ receptor signalling from BD Biosciences (San Jose, Calif.). The cells express a biosensor developed around a modified rat olfactory cyclic nucleotide gated (CNG) calcium channel—a fairly non-discriminatory ion channel that responds to cAMP and cGMP. The CNG has been engineered to be cAMP selective and thus function as a cAMP responsive biosensor that signals through calcium or membrane potential responsive dyes. Y2 or Y4 receptor expressing ACTOne HEK-293 cells are obtained from BD Biosciences. The cells are loaded with a calcium responsive dye that only distributes in the cytoplasm. Probenecid, an inhibitor of the organic anion transporter is added to prevent the dye from leaving the cell. A phosphodiesterase inhibitor is added to prevent formatted cAMP from being degraded. Isoproterenol (an β1/β2 agonist) is added to activate the adenylate cyclase. When an Y2 or Y4 receptor agonist is added, the adenylate cyclase is inactivated. The decreased calcium concentration in the cytoplasm is then detected as an increase in fluorescence. Together with the test substance, Isoproterenol at a concentration matching EC80, is added to all wells. • The cells are plated out in Greiner 384-well plates. […] The plates are covered with tinfoil to avoid light (the dye can be excited by the daylight, which results in higher baseline and variation). • The FLIPR (FLIPRtetra from Molecular Devices, CA, USA) adds 1 μl sample and 1 μl isoproterenol (0.05 μM final concentration) at the same time. • The fluorescence signal from the wells is measured 330 seconds after sample addition on the FLIPR.

[1] = Mini-pig PK assay (plasma half-life); conditions: Göttingen, minipig
Outline: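 Catheterised mini-pigs received compound i.v. at 10 nmol/kg in pH 4.0 phosphate/NaCl/tween vehicle, or alternatively i.v. or s.c. at 1–30 nmol/kg in pH 8.0 K2HPO4/tween. Stabilised plasma was sampled up to 13 days and assayed by LC-MS (LLOQ 2 nM). Half-life came from non-compartmental analysis of individual animal profiles.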

[2] = Table 2, PP analogues, ACTOne HEK-293 cells, read-out: Y2 cAMP EC50
[3] = Table 2, PP analogues, ACTOne HEK-293 cells, read-out: Y4 cAMP EC50

T2 sequence (P50391 whole entry): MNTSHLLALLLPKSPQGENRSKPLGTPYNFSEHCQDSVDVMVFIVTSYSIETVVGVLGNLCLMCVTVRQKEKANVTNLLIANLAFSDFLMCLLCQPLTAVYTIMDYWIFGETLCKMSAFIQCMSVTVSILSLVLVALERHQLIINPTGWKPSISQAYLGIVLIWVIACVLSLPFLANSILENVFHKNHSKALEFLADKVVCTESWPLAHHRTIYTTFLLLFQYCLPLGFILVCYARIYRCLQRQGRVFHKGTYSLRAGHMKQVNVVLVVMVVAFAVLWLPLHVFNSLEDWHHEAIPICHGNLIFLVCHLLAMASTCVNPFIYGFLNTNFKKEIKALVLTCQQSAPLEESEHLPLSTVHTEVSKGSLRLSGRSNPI

Row | SMILES | EC50 (Y2 receptor) | EC50 (Y4 receptor) | half-life ([1]; in vivo, iv, 7 nmol/kg) | half-life ([1]; male, in vivo, sc, 7 nmol/kg) | EC50 (Y2 receptor; [2]) | EC50 (Y4 receptor; [3]) | half-life ([1]; iv, 4 nmol/kg) | half-life ([1]; male, sc, 4 nmol/kg) | half-life ([1]; in vivo, iv, 4 nmol/kg) | half-life ([1]; iv, 10 nmol/kg)
1 | CC[C@H](C)[C@H](NC(=O)[C@H](Cc1ccc(O)cc1)NC(=O)[C@H](CCCNC(=N)N)NC(=O)[C@H](CCCNC(=N)N)NC(=O)[C@H](CC(C)C)NC(=O)[C@H](CC(=O)O)NC(=O)[C@H](C)NC(=O)[C@H](C)NC(=O)[C@H](Cc1ccc(O)cc1)NC(=O)[C@H](CCC(N)=O)NC(=O)[C@H](C)NC(=O)[C@H](CC(C)C)NC(=O)[C@H](CCC(N)=O)NC(=O)[C@H](CCC(=O)O)NC(=O)[C@@H]1CCCN1C(=O)[C@@H](NC(=O)[C@H](C)NC(=O)[C@H](CC(N)=O)NC(=O)[C@H](CC(=O)O)NC(=O)CNC(=O)[C@@H]1CCCN1C(=O)[C@H](Cc1ccc(O)cc1)NC(=O)[C@@H](NC(=O)[C@@H]1CCCN1C(=O)[C@H](CCC(=O)O)NC(=O)[C@H](CC(C)C)NC(=O)[C@@H]1CCCN1)C(C)C)[C@@H](C)O)C(=O)N[C@@H](CC(N)=O)C(=O)N[C@@H](CC(C)C)C(=O)N[C@@H](CC(C)C)C(=O)N[C@H](C(=O)N[C@@H](CCCCNC(=O)COCCOCCNC(=O)COCCOCCNC(=O)CC[C@H](NC(=O)[C@H]1CC[C@H](CNC(=O)CCCCCCCCCCCCCCCCCCC(=O)O)CC1)C(=O)O)C(=O)N1CCC[C@H]1C(=O)N[C@@H](CCCNC(=N)N)C(=O)N[C@@H](Cc1ccc(O)cc1)C(N)=O)[C@@H](C)O [SEQ ID NO: 42, N-epsilon33-[2-(2-{2-[2-(2-{2-[(S)-4-Carboxy-4-({trans-4-[(19-carboxynonadecanoylamino)methyl]cyclohexanecarbonyl}amino)butyrylamino]-ethoxy}ethoxy)acetylamino]ethoxy}ethoxy)acetyl][Leu17,Leu30,Lys33]hPP2-36] (H-PLEPVYPGDNATPEQLAQYAADLRRYINLLTK([AEEA-AEEA-γGlu-Trx-C20 diacid])PRY-NH2) | > 1 µM | > 1 µM | 116 h | 167 h | – | – | – | – | – | –
2 | CC[C@H](C)[C@H](NC(=O)[C@H](Cc1ccc(O)cc1)NC(=O)[C@H](CCCNC(=N)N)NC(=O)[C@H](CCCNC(=N)N)NC(=O)[C@H](CC(C)C)NC(=O)[C@H](CC(=O)O)NC(=O)[C@H](C)NC(=O)[C@H](C)NC(=O)[C@H](Cc1ccc(O)cc1)NC(=O)[C@H](CCC(N)=O)NC(=O)[C@H](C)NC(=O)[C@H](CC(C)C)NC(=O)[C@H](CCC(N)=O)NC(=O)[C@H](CCC(=O)O)NC(=O)[C@@H]1CCCN1C(=O)[C@@H](NC(=O)[C@H](C)NC(=O)[C@H](CC(N)=O)NC(=O)[C@H](CC(=O)O)NC(=O)CNC(=O)[C@@H]1CCCN1C(=O)[C@H](Cc1ccc(O)cc1)NC(=O)[C@@H](NC(=O)[C@@H]1CCCN1C(=O)[C@H](CCC(=O)O)NC(=O)[C@H](CC(C)C)NC(=O)[C@@H]1CCCN1)C(C)C)[C@@H](C)O)C(=O)N[C@@H](CCCCNC(=O)COCCOCCNC(=O)COCCOCCNC(=O)CC[C@H](NC(=O)[C@H]1CC[C@H](CNC(=O)CCCCCCCCCCCCCCCCCCC(=O)O)CC1)C(=O)O)C(=O)N[C@@H](CC(C)C)C(=O)N[C@@H](CC(C)C)C(=O)N[C@H](C(=O)N[C@@H](CCCNC(=N)N)C(=O)N1CCC[C@H]1C(=O)N[C@@H](CCCNC(=N)N)C(=O)N[C@@H](Cc1ccc(O)cc1)C(N)=O)[C@@H](C)O [SEQ ID NO: 44, N-epsilon29-[2-(2-{2-[2-(2-{2-[(S)-4-Carboxy-4-({trans-4-[(19-carboxynonadecanoylamino)methyl]cyclohexanecarbonyl}amino)butyrylamino]-ethoxy}ethoxy)acetylamino]ethoxy}ethoxy)acetyl][Leu17,Lys29,Leu30]hPP2-36] (H-PLEPVYPGDNATPEQLAQYAADLRRYIK([AEEA-AEEA-γGlu-Trx-C20 diacid])LLTRPRY-NH2) | – | – | – | – | > 1 µM | > 0.89 µM | 74 h | 93 h | – | –
3 | CC[C@H](C)[C@H](NC(=O)[C@H](Cc1ccc(O)cc1)NC(=O)[C@H](CCCCNC(=O)COCCOCCNC(=O)COCCOCCNC(=O)CC[C@H](NC(=O)[C@H]1CC[C@H](CNC(=O)CCCCCCCCCCCCCCCCCCC(=O)O)CC1)C(=O)O)NC(=O)[C@H](CCCNC(=N)N)NC(=O)[C@H](CC(C)C)NC(=O)[C@H](CC(=O)O)NC(=O)[C@H](C)NC(=O)[C@H](C)NC(=O)[C@H](Cc1ccc(O)cc1)NC(=O)[C@H](CCC(N)=O)NC(=O)[C@H](C)NC(=O)[C@H](CC(C)C)NC(=O)[C@H](CCC(N)=O)NC(=O)[C@H](CCC(=O)O)NC(=O)[C@@H]1CCCN1C(=O)[C@@H](NC(=O)[C@H](C)NC(=O)[C@H](CC(N)=O)NC(=O)[C@H](CC(=O)O)NC(=O)CNC(=O)[C@@H]1CCCN1C(=O)[C@H](Cc1ccc(O)cc1)NC(=O)[C@@H](NC(=O)[C@@H]1CCCN1C(=O)[C@H](CCC(=O)O)NC(=O)[C@H](CC(C)C)NC(=O)[C@@H]1CCCN1)C(C)C)[C@@H](C)O)C(=O)N[C@@H](CC(N)=O)C(=O)N[C@@H](CC(C)C)C(=O)N[C@@H](CC(C)C)C(=O)N[C@H](C(=O)N[C@@H](CCCNC(=N)N)C(=O)N1CCC[C@H]1C(=O)N[C@@H](CCCNC(=N)N)C(=O)N[C@@H](Cc1ccc(O)cc1)C(N)=O)[C@@H](C)O [SEQ ID NO: 45, N-epsilon26-[2-(2-{2-[2-(2-{2-[(S)-4-Carboxy-4-({trans-4-[(19-carboxynonadecanoylamino)methyl]cyclohexanecarbonyl}amino)butyrylamino]-ethoxy}ethoxy)acetylamino]ethoxy}ethoxy)acetyl][Leu17,Lys26,Leu30]hPP2-36] (H-PLEPVYPGDNATPEQLAQYAADLRK([AEEA-AEEA-γGlu-Trx-C20 diacid])YINLLTRPRY-NH2; N-terminus and C-terminus assumed) | > 1 µM | 0.007 µM | – | – | – | – | – | – | 58 h | –
4 | CC[C@H](C)[C@H](NC(=O)[C@H](Cc1ccc(O)cc1)NC(=O)[C@H](CCCNC(=N)N)NC(=O)[C@H](CCCNC(=N)N)NC(=O)[C@H](CC(C)C)NC(=O)[C@H](CC(=O)O)NC(=O)[C@H](C)NC(=O)[C@H](C)NC(=O)[C@H](Cc1ccc(O)cc1)NC(=O)[C@H](CCC(N)=O)NC(=O)[C@H](C)NC(=O)[C@H](CC(C)C)NC(=O)[C@H](CCC(N)=O)NC(=O)[C@H](CCC(=O)O)NC(=O)[C@@H]1CCCN1C(=O)[C@@H](NC(=O)[C@H](C)NC(=O)[C@H](CC(N)=O)NC(=O)[C@H](CC(=O)O)NC(=O)CNC(=O)[C@@H]1CCCN1C(=O)[C@H](Cc1ccc(O)cc1)NC(=O)[C@@H](NC(=O)[C@@H]1CCCN1C(=O)[C@H](CCC(=O)O)NC(=O)[C@H](CC(C)C)NC(=O)[C@@H]1CCCN1)C(C)C)[C@@H](C)O)C(=O)N[C@@H](CC(N)=O)C(=O)N[C@@H](CC(C)C)C(=O)N[C@@H](CC(C)C)C(=O)N[C@H](C(=O)N[C@@H](CCCNC(=N)N)C(=O)N1CCC[C@H]1C(=O)N[C@@H](CCCCNC(=O)COCCOCCNC(=O)COCCOCCNC(=O)CC[C@H](NC(=O)[C@H]1CC[C@H](CNC(=O)CCCCCCCCCCCCCCCCCCC(=O)O)CC1)C(=O)O)C(=O)N[C@@H](Cc1ccc(O)cc1)C(N)=O)[C@@H](C)O [SEQ ID NO: 48, N-epsilon35-[2-(2-{2-[2-(2-{2-[(S)-4-Carboxy-4-({trans-4-[(19-carboxynonadecanoylamino)methyl]cyclohexanecarbonyl}amino)butyrylamino]-ethoxy}ethoxy)acetylamino]ethoxy}ethoxy)acetyl][Leu17,Leu30,Lys35]hPP2-36] (H-PLEPVYPGDNATPEQLAQYAADLRRYINLLTRPK([AEEA-AEEA-γGlu-Trx-C20 diacid])Y-NH2) | – | – | – | – | > 1 µM | > 1 µM | – | – | – | 93 h
